Reference: patent publication US11274083B2, “Substituted thiophenyl uracils, salts thereof and the use thereof as herbicidal agents” (Syngenta Crop Protection AG, priority 2017, dated 2022)

How the values were obtained:
Format in all cases: in vivo
Abutilon theophrasti [1] = assay: Herbicidal action post-emergence, greenhouse pot test
Procedure, shortened: (§1)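 Visual efficacy scoring (0% like untreated, 100% plant death) about 3 weeks post-treatment. Application, at ≤80 g/ha, was a post-emergence spray of wettable-powder or emulsion-concentrate formulations in water with 0.5% additive at 600 L/ha onto one-leaf-stage plants grown 2–3 weeks from seed in sandy loam.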

Alopecurus myosuroides [2] = assay: as above; conditions: scored visually after about 3 weeks vs untreated controls
Procedure, shortened: as §1

Amaranthus retroflexus [3] = assay: as above
Procedure, shortened: as §1

Avena fatua [4] = assay: as above
Procedure, shortened: as §1

Echinochloa crus-galli [5] = assay: as above
Procedure, shortened: as §1

Hordeum murinum [6] = assay: as above
Procedure, shortened: as §1

Lolium rigidum [7] = assay: as above
Procedure, shortened: as §1

Matricaria inodora [8] = assay: as above
Procedure, shortened: as §1

Pharbitis purpurea [9] = assay: as above
Procedure, shortened: as §1

Polygonum convolvulus [10] = assay: as above
Procedure, shortened: as §1

Setaria viridis [11] = assay: as above
Procedure, shortened: as §1

Stellaria media [12] = assay: as above
Procedure, shortened: as §1

Veronica persica [13] = assay: as above
Procedure, shortened: as §1

Viola tricolor [14] = assay: as above
Procedure, shortened: as §1

Abutilon theophrasti [15] = assay: Herbicidal action pre-emergence, greenhouse pot test
Procedure, shortened: (§2)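 Pre-emergence soil-surface treatment at application rates of 320 g/ha or below, using WP or EC formulations in water (600 L/ha) plus 0.5% additive over freshly sown, soil-covered seeds. After roughly 3 weeks' greenhouse growth, damage rated visually against untreated plants, 0% meaning like control.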

Alopecurus myosuroides [16] = assay: as above; conditions: application rate 320 g/ha
Procedure, shortened: as §2

Amaranthus retroflexus [17] = assay: as above
Procedure, shortened: as §2

Avena fatua [18] = assay: as above; conditions: application rate 320 g/ha
Procedure, shortened: as §2

Echinochloa crus-galli [19] = assay: as above; conditions: application rate 320 g/ha
Procedure, shortened: as §2

Hordeum murinum [20] = assay: as above; conditions: application rate 320 g/ha
Procedure, shortened: as §2

Lolium rigidum [21] = assay: as above; conditions: application rate 320 g/ha
Procedure, shortened: as §2

Pharbitis purpurea [22] = assay: as above
Procedure, shortened: as §2

Polygonum convolvulus [23] = assay: as above
Procedure, shortened: as §2

Setaria viridis [24] = assay: as above
Procedure, shortened: as §2

Stellaria media [25] = assay: as above
Procedure, shortened: as §2

Veronica persica [26] = assay: as above
Procedure, shortened: as §2

Viola tricolor [27] = assay: as above
Procedure, shortened: as §2

Matricaria inodora [28] = assay: as above
Oryza sativa = assay: Crop compatibility post-emergence, greenhouse pot test; conditions: application rate 5 g/ha
Procedure, shortened: (§3)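 Crops grown in sandy loam in greenhouse pots; treated post-emergence at one-leaf stage, 2–3 weeks after sowing, spraying WP or EC formulations as aqueous suspension/emulsion with 0.5% additive at 600 L/ha. Damage scored visually after about 3 weeks against untreated controls (0% = like control, 100% = dead).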

Triticum aestivum = assay: as above; conditions: application rate 20 g/ha
Procedure, shortened: as §3

Digitaria sanguinalis = assay: Herbicidal action post-emergence, greenhouse pot test
Zea mays = assay: Crop compatibility post-emergence, greenhouse pot test; conditions: application rate 5 g/ha
Procedure, shortened: as §3

Row | SMILES | Abutilon theophrasti (Efficacy in %) (Abutilon theophrasti [1]; application rate 80 g/ha) [%] | Alopecurus myosuroides (Efficacy in %) (Alopecurus myosuroides [2]; application rate 80 g/ha) [%] | Amaranthus retroflexus (Efficacy in %) (Amaranthus retroflexus [3]; application rate 80 g/ha) [%] | Avena fatua (Efficacy in %) (Avena fatua [4]; application rate 80 g/ha) [%] | Echinochloa crus-galli (Efficacy in %) (Echinochloa crus-galli [5]; application rate 80 g/ha) [%] | Hordeum murinum (Efficacy in %) (Hordeum murinum [6]; application rate 20 g/ha) [%] | Lolium rigidum (Efficacy in %) (Lolium rigidum [7]; application rate 80 g/ha) [%] | Matricaria inodora (Efficacy in %) (Matricaria inodora [8]; application rate 80 g/ha) [%] | Pharbitis purpurea (Efficacy in %) (Pharbitis purpurea [9]; application rate 20 g/ha) [%] | Polygonum convolvulus (Efficacy in %) (Polygonum convolvulus [10]; application rate 20 g/ha) [%] | Setaria viridis (Efficacy in %) (Setaria viridis [11]; application rate 80 g/ha) [%] | Stellaria media (Efficacy in %) (Stellaria media [12]; application rate 20 g/ha) [%] | Veronica persica (Efficacy in %) (Veronica persica [13]; application rate 20 g/ha) [%] | Viola tricolor (Efficacy in %) (Viola tricolor [14]; application rate 80 g/ha) [%] | Alopecurus myosuroides (Efficacy in %) (Alopecurus myosuroides [16]) [%] | Avena fatua (Efficacy in %) (Avena fatua [18]) [%] | Echinochloa crus-galli (Efficacy in %) (Echinochloa crus-galli [19]) [%] | Hordeum murinum (Efficacy in %) (Hordeum murinum [20]) [%] | Lolium rigidum (Efficacy in %) (Lolium rigidum [21]) [%] | Hordeum murinum (Efficacy in %) (Hordeum murinum [6]; application rate 80 g/ha) [%] | other results
1 | COC(=O)CCOC(=O)C(C)Sc1cc(-n2c(=O)cc(C(F)(F)F)n(C)c2=O)c(F)cc1Cl (stereo not shown) [I.1-2] | 100 | 100 | 100 | 80 | 100 | 100 | 90 | 100 | 100 | 100 | 100 | 100 | 100 | 100 | 90 | 90 | 100 | 90 | 100 | – | Abutilon theophrasti (Efficacy in %) (Abutilon theophrasti [15]; application rate 80 g/ha): 100%; Amaranthus retroflexus (Efficacy in %) (Amaranthus retroflexus [17]; application rate 80 g/ha): 100%; Pharbitis purpurea (Efficacy in %) (Pharbitis purpurea [22]; application rate 80 g/ha): 100%; Polygonum convolvulus (Efficacy in %) (Polygonum convolvulus [23]; application rate 80 g/ha): 100%; Setaria viridis (Efficacy in %) (Setaria viridis [24]; application rate 80 g/ha): 100%; Stellaria media (Efficacy in %) (Stellaria media [25]; application rate 80 g/ha): 100%; Veronica persica (Efficacy in %) (Veronica persica [26]; application rate 80 g/ha): 100%; Viola tricolor (Efficacy in %) (Viola tricolor [27]; application rate 80 g/ha): 100%; Matricaria inodora (Efficacy in %) (Matricaria inodora [28]; application rate 80 g/ha): 100%
2 | CCCOC(=O)CCOC(=O)C(C)Sc1cc(-n2c(=O)cc(C(F)(F)F)n(C)c2=O)c(F)cc1Cl (stereo not shown) [I.1-8] | 100 | 90 | 100 | 80 | 100 | – | 90 | 100 | – | – | 100 | – | – | 100 | 80 | – | 100 | – | 90 | 90 | Pharbitis purpurea (Efficacy in %) (Pharbitis purpurea [9]; application rate 80 g/ha): 100%; Polygonum convolvulus (Efficacy in %) (Polygonum convolvulus [10]; application rate 80 g/ha): 100%; Stellaria media (Efficacy in %) (Stellaria media [12]; application rate 80 g/ha): 100%; Veronica persica (Efficacy in %) (Veronica persica [13]; application rate 80 g/ha): 100%; Oryza sativa (Efficacy in %) (Oryza sativa): 20%; Triticum aestivum (Efficacy in %) (Triticum aestivum): 20%; Abutilon theophrasti (Efficacy in %) (Abutilon theophrasti [15]; application rate 320 g/ha): 100%; Amaranthus retroflexus (Efficacy in %) (Amaranthus retroflexus [17]; application rate 320 g/ha): 100%; Pharbitis purpurea (Efficacy in %) (Pharbitis purpurea [22]; application rate 320 g/ha): 100%; Polygonum convolvulus (Efficacy in %) (Polygonum convolvulus [23]; application rate 320 g/ha): 100%; Setaria viridis (Efficacy in %) (Setaria viridis [24]; application rate 320 g/ha): 100%; Stellaria media (Efficacy in %) (Stellaria media [25]; application rate 320 g/ha): 100%; Veronica persica (Efficacy in %) (Veronica persica [26]; application rate 320 g/ha): 100%; Viola tricolor (Efficacy in %) (Viola tricolor [27]; application rate 320 g/ha): 100%; Matricaria inodora (Efficacy in %) (Matricaria inodora [28]; application rate 320 g/ha): 100%; Digitaria sanguinalis (Efficacy in %) (Digitaria sanguinalis; application rate 80 g/ha): 100%
3 | COC(=O)CC(CC(=O)OC)OC(=O)C(C)Sc1cc(-n2c(=O)cc(C(F)(F)F)n(C)c2=O)c(F)cc1Cl (stereo not shown) [I.1-127] | 100 | 90 | – | 80 | 100 | – | 100 | 100 | 100 | – | 100 | 100 | 100 | 100 | 90 | 90 | 100 | 100 | 100 | 90 | Amaranthus retroflexus (Efficacy in %) (Amaranthus retroflexus [3]; application rate 20 g/ha): 100%; Polygonum convolvulus (Efficacy in %) (Polygonum convolvulus [10]; application rate 80 g/ha): 100%; Zea mays (Efficacy in %) (Zea mays): 20%; Abutilon theophrasti (Efficacy in %) (Abutilon theophrasti [15]; application rate 320 g/ha): 100%; Amaranthus retroflexus (Efficacy in %) (Amaranthus retroflexus [17]; application rate 20 g/ha): 100%; Pharbitis purpurea (Efficacy in %) (Pharbitis purpurea [22]; application rate 320 g/ha): 100%; Polygonum convolvulus (Efficacy in %) (Polygonum convolvulus [23]; application rate 320 g/ha): 100%; Setaria viridis (Efficacy in %) (Setaria viridis [24]; application rate 320 g/ha): 100%; Stellaria media (Efficacy in %) (Stellaria media [25]; application rate 320 g/ha): 100%; Veronica persica (Efficacy in %) (Veronica persica [26]; application rate 320 g/ha): 100%; Viola tricolor (Efficacy in %) (Viola tricolor [27]; application rate 320 g/ha): 100%; Matricaria inodora (Efficacy in %) (Matricaria inodora [28]; application rate 320 g/ha): 100%
4 | CC(Sc1cc(-n2c(=O)cc(C(F)(F)F)n(C)c2=O)c(F)cc1Cl)C(=O)OC1COC(=O)C1 (stereo not shown) [I.1-144] | – | – | – | – | – | 80 | – | – | 100 | 100 | – | 80 | 100 | – | – | – | – | – | – | – | Abutilon theophrasti (Efficacy in %) (Abutilon theophrasti [1]; application rate 20 g/ha): 100%; Alopecurus myosuroides (Efficacy in %) (Alopecurus myosuroides [2]; application rate 20 g/ha): 80%; Amaranthus retroflexus (Efficacy in %) (Amaranthus retroflexus [3]; application rate 20 g/ha): 100%; Avena fatua (Efficacy in %) (Avena fatua [4]; application rate 20 g/ha): 100%; Echinochloa crus-galli (Efficacy in %) (Echinochloa crus-galli [5]; application rate 20 g/ha): 100%; Lolium rigidum (Efficacy in %) (Lolium rigidum [7]; application rate 20 g/ha): 100%; Matricaria inodora (Efficacy in %) (Matricaria inodora [8]; application rate 20 g/ha): 100%; Setaria viridis (Efficacy in %) (Setaria viridis [11]; application rate 20 g/ha): 100%; Viola tricolor (Efficacy in %) (Viola tricolor [14]; application rate 20 g/ha): 100%; Oryza sativa (Efficacy in %) (Oryza sativa): 20%; Zea mays (Efficacy in %) (Zea mays): 10%; Digitaria sanguinalis (Efficacy in %) (Digitaria sanguinalis; application rate 20 g/ha): 80%
